According to patent publication US20240174690A1, “ANNULATED 2-AMINO-3-CYANO THIOPHENES AND DERIVATIVES FOR THE TREATMENT OF CANCER” (BOEHRINGER INGELHEIM INTERNATIONAL GMBH, priority 2021, published 2024):
Converted amounts (≈) assume the structure as drawn. Read-outs that look alike come from different tables or passages of the source.

How the values were obtained:
KRAS (G12D)::SOS1 = KRAS (G12D)::SOS1 (Homo sapiens (Human), UniProt P01116, G12D); assay: KRAS::SOS1 AlphaScreen binding assay, KRAS G12D
How it was run: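 Compounds (up to 100 μM, eleven fivefold dilutions in duplicate) were incubated 30 min with KRAS 1-169 (10 nM, or 7.5 nM for G12C), GST-SOS1 564-1049 (5 nM for G12D/G12C, 10 nM for others) and 10 μM GDP in PBS buffer with BSA and Tween. Donor/acceptor beads were then added for 60 min at room temperature, and IC50 came from a 4-parameter fit of the AlphaScreen signal.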

[1] = Solubility measurement (DMSO solution method), McIlvaine buffer pH 4.5 or 6.8; assay type: physicochemical; conditions: aqueous buffer, kinetic from dmso stock, DMSO stock diluted to 250 μM, 24 h shaking at ambient temperature
How it was run: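 Filtrate concentration by LC-UV, calibrated to a known-concentration reference dissolved completely in acetonitrile/water (1:1). Samples came from 250 µM final dilutions of DMSO stock in pH 4.5 or 6.8 McIlvaine buffer, shaken 24 h at ambient temperature, then filtered.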

SAS cells = assay: SAS CTG proliferation assay (120 h) (HNSCC, wt amplified); assay type: cell-based
How it was run: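 Viability measured by CellTiter-Glo luminescence, normalized to DMSO wells, after 120 h compound treatment of SAS cells. Cells grown in DMEM:F12 plus 10% FCS at 300 cells per well, dosed the day after seeding. Four-parameter fit gives IC50.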

[2] = Plasma protein binding assay (PPB), equilibrium dialysis, 10% FCS in PBS; assay type: in vitro ADME; conditions: bovine, read-out: PPB 10% FCS (% fu)
How it was run: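 Test compound (1-10 μmol/L) in 10% FCS in PBS was dialysed for 3-5 h at 37° C versus PBS ± dextran across a semipermeable membrane. LC-MS of both compartments after protein precipitation gave Cserum and Cbuffer, from which the unbound fraction fu was derived.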

[3] = McIlvaine buffer pH 4.5, read-out: solubility pH 4.5
[4] = McIlvaine buffer pH 6.8, read-out: solubility pH 6.8

Chain of KRAS (G12D)::SOS1 (P01116 other isoform, or with tags, fused parts or gaps G12D): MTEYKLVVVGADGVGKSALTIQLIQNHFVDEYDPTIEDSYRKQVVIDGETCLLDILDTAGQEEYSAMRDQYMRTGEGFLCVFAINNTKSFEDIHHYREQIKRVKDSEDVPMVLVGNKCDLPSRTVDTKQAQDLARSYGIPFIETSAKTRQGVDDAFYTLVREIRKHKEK

Row | SMILES | IC50 (KRAS (G12D)::SOS1) | solubility at 24 h [1, 3] | solubility at 24 h [1, 4] | IC50 (SAS cells) | fraction unbound [2]
1 | C[C@H](Oc1cc([C@@H]2CCOC2)nc(-c2noc3c2CCC[C@@]32CCCc3sc(N)c(C#N)c32)n1)[C@@H]1CCCN1C [II-94] | 0.001 µM | > 126 µg/mL | > 122 µg/mL | 0.082 µM | 0.31
2 | C[C@H](Oc1cc(C2COCCO2)nc(-c2noc3c2CCC[C@@]32CCCc3sc(N)c(C#N)c32)n1)[C@@H]1CCCN1C (some centres unmarked) [II-95] | 0.002 µM | > 134 µg/mL | > 121 µg/mL | 5.18 µM | 0.53
3 | C[C@H](Oc1cc(-c2ccn(C)n2)nc(-c2noc3c2CCC[C@@]32CCCc3sc(N)c(C#N)c32)n1)[C@@H]1CCCN1C [II-96] | 0.002 µM | 107 µg/mL (≈ 187 µM) | 2 µg/mL (≈ 3.5 µM) | 0.148 µM | 0.25
4 | C[C@H](Oc1cc(-c2cccc(CO)c2)nc(-c2noc3c2CCC[C@@]32CCCc3sc(N)c(C#N)c32)n1)[C@@H]1CCCN1C [II-97] | 0.013 µM | 40 µg/mL (≈ 67 µM) | < 1 µg/mL | 0.646 µM | 0.13
5 | C[C@H](Oc1cc(-c2ccn(C3CC3)n2)nc(-c2noc3c2CCC[C@@]32CCCc3sc(N)c(C#N)c32)n1)[C@@H]1CCCN1C [II-98] | 0.004 µM | 83 µg/mL (≈ 139 µM) | < 1 µg/mL | 0.03 µM | 0.01
6 | C[C@H](Oc1cc(N2CCC(C#N)C2)nc(-c2noc3c2CCC[C@@]32CCCc3sc(N)c(C#N)c32)n1)[C@@H]1CCCN1C (some centres unmarked) [II-99] | 0.004 µM | 115 µg/mL (≈ 197 µM) | 84 µg/mL (≈ 144 µM) | 0.088 µM | 0.11
7 | C[C@H](Oc1cc(-c2cn(C3COC3)nn2)nc(-c2noc3c2CCC[C@@]32CCCc3sc(N)c(C#N)c32)n1)[C@@H]1CCCN1C [II-100] | 0.006 µM | 120 µg/mL (≈ 196 µM) | 57 µg/mL (≈ 92.9 µM) | 3.19 µM | 0.28
8 | C[C@H](Oc1cc(-c2ccc(N)nc2)nc(-c2noc3c2CCC[C@@]32CCCc3sc(N)c(C#N)c32)n1)[C@@H]1CCCN1C [II-101] | 0.004 µM | 88 µg/mL (≈ 151 µM) | 2 µg/mL (≈ 3.43 µM) | 0.13 µM | 0.23
9 | C[C@H](Oc1cc(-n2ccc(C#N)n2)nc(-c2noc3c2CCC[C@@]32CCCc3sc(N)c(C#N)c32)n1)[C@@H]1CCCN1C [II-102] | 0.003 µM | 24 µg/mL (≈ 41.3 µM) | < 1 µg/mL | 0.071 µM | 0.04
10 | C[C@H](Oc1cc(-c2ccn3ncnc3c2)nc(-c2noc3c2CCC[C@@]32CCCc3sc(N)c(C#N)c32)n1)[C@@H]1CCCN1C [II-104] | 0.005 µM | 3 µg/mL (≈ 4.94 µM) | < 1 µg/mL | 0.114 µM | 0.18
11 | C[C@H](Oc1cc(-n2cncc3ccnc2-3)nc(-c2noc3c2CCC[C@@]32CCCc3sc(N)c(C#N)c32)n1)[C@@H]1CCCN1C [II-105] | 0.002 µM | 3 µg/mL (≈ 4.94 µM) | < 1 µg/mL | 0.055 µM | 0.07
12 | Cc1cn(-c2cc(O[C@@H](C)[C@@H]3CCCN3C)nc(-c3noc4c3CCC[C@@]43CCCc4sc(N)c(C#N)c43)n2)nn1 [II-106] | 0.009 µM | 107 µg/mL (≈ 187 µM) | 13 µg/mL (≈ 22.7 µM) | 0.096 µM | 0.2
13 | CO[C@@H]1C[C@@H]([C@H](C)Oc2cc(-c3ccn(C4COC4)n3)nc(-c3noc4c3CCC[C@@]43CCCc4sc(N)c(C#N)c43)n2)N(C)C1 [II-107] | 0.004 µM | > 162 µg/mL | < 1 µg/mL | 0.007 µM | 0.24
14 | C[C@H](Oc1cc(-c2ccn(C3COC3)n2)nc(-c2noc3c2CCC[C@@]32CCCc3sc(N)c(C#N)c32)n1)[C@@H]1CCCN1C [II-109] | 0.003 µM | 117 µg/mL (≈ 191 µM) | 61 µg/mL (≈ 99.5 µM) | 0.02 µM | 0.18
15 | C[C@H](Oc1cc(-n2ccc(Br)n2)nc(-c2noc3c2CCC[C@@]32CCCc3sc(N)c(C#N)c32)n1)[C@@H]1CCCN1C [II-110] | 0.003 µM | 3 µg/mL (≈ 4.72 µM) | < 1 µg/mL | 0.068 µM | 0.01
16 | C[C@H](Oc1cc(-c2cnsc2)nc(-c2noc3c2CCC[C@@]32CCCc3sc(N)c(C#N)c32)n1)[C@@H]1CCCN1C [II-111] | 0.003 µM | 22 µg/mL (≈ 38.3 µM) | < 1 µg/mL | 0.057 µM | 0.11
17 | C[C@H](O)Cn1ccc(-c2cc(O[C@@H](C)[C@@H]3CCCN3C)nc(-c3noc4c3CCC[C@@]43CCCc4sc(N)c(C#N)c43)n2)n1 [II-112] | 0.001 µM | > 139 µg/mL | 121 µg/mL (≈ 197 µM) | 0.054 µM | 0.41
18 | C[C@H](Oc1cc(-n2cc(Cn3ccnc3)nn2)nc(-c2noc3c2CCC[C@@]32CCCc3sc(N)c(C#N)c32)n1)[C@@H]1CCCN1C [II-113] | 0.002 µM | > 173 µg/mL | 107 µg/mL (≈ 168 µM) | 0.381 µM | 0.39
19 | COC(=O)c1ccc(-c2cc(O[C@@H](C)[C@@H]3CCCN3C)nc(-c3noc4c3CCC[C@@]43CCCc4sc(N)c(C#N)c43)n2)o1 [II-114] | 0.003 µM | 41 µg/mL (≈ 66.7 µM) | < 1 µg/mL | 0.028 µM | 0.07
20 | C[C@H](Oc1cc(-c2ccn(C[C@@H](C)O)n2)nc(-c2noc3c2CCC[C@@]32CCCc3sc(N)c(C#N)c32)n1)[C@@H]1CCCN1C [II-117] | 0.002 µM | > 183 µg/mL | > 147 µg/mL | 0.022 µM | 0.19
21 | C[C@H](Oc1cc(-n2cc(C3CC3)nn2)nc(-c2noc3c2CCC[C@@]32CCCc3sc(N)c(C#N)c32)n1)[C@@H]1CCCN1C [II-118] | 0.004 µM | 32 µg/mL (≈ 53.5 µM) | < 1 µg/mL | 0.931 µM | 0.08
22 | C[C@H](Oc1cc(-n2ccc(-c3ccccn3)n2)nc(-c2noc3c2CCC[C@@]32CCCc3sc(N)c(C#N)c32)n1)[C@@H]1CCCN1C [II-119] | 0.002 µM | < 1 µg/mL | < 1 µg/mL | 0.039 µM | 0.04
23 | C[C@H](Oc1cc(-n2ccnc2)nc(-c2noc3c2CCC[C@@]32CCCc3sc(N)c(C#N)c32)n1)[C@@H]1C[C@@H](F)CN1C [II-120] | 0.009 µM | 106 µg/mL (≈ 184 µM) | < 1 µg/mL | 0.488 µM | 0.24
24 | COCc1cn(-c2cc(O[C@@H](C)[C@@H]3CCCN3C)nc(-c3noc4c3CCC[C@@]43CCCc4sc(N)c(C#N)c43)n2)nn1 [II-121] | 0.003 µM | 109 µg/mL (≈ 181 µM) | 69 µg/mL (≈ 115 µM) | 0.56 µM | 0.4
25 | CNC(=O)c1cn(-c2cc(O[C@@H](C)[C@@H]3CCCN3C)nc(-c3noc4c3CCC[C@@]43CCCc4sc(N)c(C#N)c43)n2)nn1 [II-122] | 0.004 µM | 122 µg/mL (≈ 198 µM) | 98 µg/mL (≈ 159 µM) | 0.889 µM | 0.44
